In patent US20230085307A1, “PYRIDAZINONE COMPOUND AND HERBICIDE” (NISSAN CHEMICAL CORPORATION, priority 2019, published 2023):

Legend:
barnyard grass [1] = assay: Test Example 3: herbicidal effect by foliage application, Wagner pot (Table 18, symbol H); format: in vivo, barnyard grass (Echinochloa crus-galli); settings: 320 g/ha
Method in brief: (§1)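 Plants were sown in alluvial soil held under 0.1–0.5 cm standing water and grown 14 days in a greenhouse at 25–30 °C. An emulsifiable formulation, water-diluted to the set dose, was then sprayed onto the foliage, and effects were scored three weeks later using previously defined criteria.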

Chinese sprangletop = assay: Test Example 3: herbicidal effect by foliage application, Wagner pot (Table 18, symbol D); format: in vivo, chinese sprangletop (Leptochloa chinensis); settings: 320 g/ha
Method in brief: as §1

rice flat sedge = assay: Test Example 3: herbicidal effect by foliage application, Wagner pot (Table 18, symbol E); format: in vivo, rice flat sedge (Cyperus iria); settings: 320 g/ha
Method in brief: as §1

southern crabgrass [2] = assay: Test Example 4: herbicidal effect by soil treatment (Table 19, symbol F); format: in vivo, southern crabgrass (Digitaria ciliaris); settings: amount of applied herbicide 320 g/ha
Method in brief: (§2)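 Applied as a water-diluted emulsion, the compound was sprayed onto soil covering newly sown seeds. Evaluation came three weeks after application, in a greenhouse held at 25° C. to 30° C.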

green foxtail [3] = assay: Test Example 4: herbicidal effect by soil treatment (Table 19, symbol G); format: in vivo, green foxtail (Setaria viridis); settings: amount of applied herbicide 320 g/ha
Method in brief: as §2

barnyard grass [4] = assay: Test Example 4: herbicidal effect by soil treatment (Table 19, symbol H); format: in vivo, barnyard grass (Echinochloa crus-galli); settings: amount of applied herbicide 320 g/ha
Method in brief: as §2

wild oat [5] = assay: Test Example 4: herbicidal effect by soil treatment (Table 19, symbol I); format: in vivo, wild oat (Avena fatua); settings: amount of applied herbicide 320 g/ha
Method in brief: as §2

blackgrass [6] = assay: Test Example 4: herbicidal effect by soil treatment (Table 19, symbol J); format: in vivo, blackgrass (Alopecurus myosuroides); settings: amount of applied herbicide 320 g/ha
Method in brief: as §2

Italian ryegrass [7] = assay: Test Example 4: herbicidal effect by soil treatment (Table 19, symbol K); format: in vivo, Italian ryegrass (Lolium multiflorum); settings: amount of applied herbicide 320 g/ha
Method in brief: as §2

windgrass [8] = assay: Test Example 4: herbicidal effect by soil treatment (Table 19, symbol L); format: in vivo, windgrass (Apera spica-venti); settings: amount of applied herbicide 320 g/ha
Method in brief: as §2

velvetleaf [9] = assay: Test Example 4: herbicidal effect by soil treatment (Table 19, symbol M); format: in vivo, velvetleaf (Abutilon theophrasti); settings: amount of applied herbicide 320 g/ha
Method in brief: as §2

redroot pigweed [10] = assay: Test Example 4: herbicidal effect by soil treatment (Table 19, symbol N); format: in vivo, redroot pigweed (Amaranthus retroflexus); settings: amount of applied herbicide 320 g/ha
Method in brief: as §2

lambsquarters [11] = assay: Test Example 4: herbicidal effect by soil treatment (Table 19, symbol O); format: in vivo, lambsquarters (Chenopodium album); settings: amount of applied herbicide 320 g/ha
Method in brief: as §2

chickweed [12] = assay: Test Example 4: herbicidal effect by soil treatment (Table 19, symbol P); format: in vivo, common chickweed (Stellaria media); settings: amount of applied herbicide 320 g/ha
Method in brief: as §2

false cleavers [13] = assay: Test Example 4: herbicidal effect by soil treatment (Table 19, symbol Q); format: in vivo, false cleavers (Galium spurium); settings: amount of applied herbicide 320 g/ha
Method in brief: as §2

persian speedwell [14] = assay: Test Example 4: herbicidal effect by soil treatment (Table 19, symbol R); format: in vivo, Persian speedwell (Veronica persica); settings: amount of applied herbicide 320 g/ha
Method in brief: as §2

southern crabgrass [15] = assay: Test Example 5: herbicidal effect by foliage application, plastic box (Table 20, symbol F); format: in vivo, southern crabgrass (Digitaria ciliaris); settings: foliage application, 320 g/ha, three weeks after application
Method in brief: (§3)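 Sow seeds spot-wise in sterilized diluvial soil; cover with ~1.5 cm soil. Grow 14 days in greenhouse, 25° C. to 30° C. Spray foliage with emulsion diluted to predetermined amount. Rate effect after 3 weeks.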

green foxtail [16] = assay: Test Example 5: herbicidal effect by foliage application, plastic box (Table 20, symbol G); format: in vivo, green foxtail (Setaria viridis); settings: foliage application, 320 g/ha, three weeks after application
Method in brief: as §3

barnyard grass [17] = assay: Test Example 5: herbicidal effect by foliage application, plastic box (Table 20, symbol H); format: in vivo, barnyard grass (Echinochloa crus-galli); settings: foliage application, 320 g/ha, three weeks after application
Method in brief: as §3

wild oat [18] = assay: Test Example 5: herbicidal effect by foliage application, plastic box (Table 20, symbol I); format: in vivo, wild oat (Avena fatua); settings: foliage application, 320 g/ha, three weeks after application
Method in brief: as §3

blackgrass [19] = assay: Test Example 5: herbicidal effect by foliage application, plastic box (Table 20, symbol J); format: in vivo, blackgrass (Alopecurus myosuroides); settings: foliage application, 320 g/ha, three weeks after application
Method in brief: as §3

Italian ryegrass [20] = assay: Test Example 5: herbicidal effect by foliage application, plastic box (Table 20, symbol K); format: in vivo, Italian ryegrass (Lolium multiflorum); settings: foliage application, 320 g/ha, three weeks after application
Method in brief: as §3

windgrass [21] = assay: Test Example 5: herbicidal effect by foliage application, plastic box (Table 20, symbol L); format: in vivo, windgrass (Apera spica-venti); settings: foliage application, 320 g/ha, three weeks after application
Method in brief: as §3

velvetleaf [22] = assay: Test Example 5: herbicidal effect by foliage application, plastic box (Table 20, symbol M); format: in vivo, velvetleaf (Abutilon theophrasti); settings: foliage application, 320 g/ha, three weeks after application
Method in brief: as §3

redroot pigweed [23] = assay: Test Example 5: herbicidal effect by foliage application, plastic box (Table 20, symbol N); format: in vivo, redroot pigweed (Amaranthus retroflexus); settings: foliage application, 320 g/ha, three weeks after application
Method in brief: as §3

lambsquarters [24] = assay: Test Example 5: herbicidal effect by foliage application, plastic box (Table 20, symbol O); format: in vivo, lambsquarters (Chenopodium album); settings: foliage application, 320 g/ha, three weeks after application
Method in brief: as §3

chickweed [25] = assay: Test Example 5: herbicidal effect by foliage application, plastic box (Table 20, symbol P); format: in vivo, common chickweed (Stellaria media); settings: foliage application, 320 g/ha, three weeks after application
Method in brief: as §3

false cleavers [26] = assay: Test Example 5: herbicidal effect by foliage application, plastic box (Table 20, symbol Q); format: in vivo, false cleavers (Galium spurium); settings: foliage application, 320 g/ha, three weeks after application
Method in brief: as §3

persian speedwell [27] = assay: Test Example 5: herbicidal effect by foliage application, plastic box (Table 20, symbol R); format: in vivo, Persian speedwell (Veronica persica); settings: foliage application, 320 g/ha, three weeks after application
Method in brief: as §3

COc1c(C)cc(-c2sc3ccccc3c2-c2c(O)c(C)nn(C)c2=O)cc1C [1-074]
herbicidal effect on H (barnyard grass), rating 0-5 (barnyard grass [1]): 3 (Herbicidal rate of 40% or more and less than 70%)
herbicidal effect on D (Chinese sprangletop), rating 0-5 (Chinese sprangletop): 0 (Herbicidal rate of 5% or less (almost no effect))
herbicidal effect on E (rice flat sedge), rating 0-5 (rice flat sedge): 5 (Herbicidal rate of 90% or more (almost completely withered))
herbicidal effect rating, F: southern crabgrass (southern crabgrass [2]): 0 (Herbicidal rate of 5% or less (almost no effect))
herbicidal effect rating, G: green foxtail (green foxtail [3]): 0 (Herbicidal rate of 5% or less (almost no effect))
herbicidal effect rating, H: barnyard grass (barnyard grass [4]): 0 (Herbicidal rate of 5% or less (almost no effect))
herbicidal effect rating, I: wild oat (wild oat [5]): 0 (Herbicidal rate of 5% or less (almost no effect))
herbicidal effect rating, J: blackgrass (blackgrass [6]): 0 (Herbicidal rate of 5% or less (almost no effect))
herbicidal effect rating, K: Italian ryegrass (Italian ryegrass [7]): 0 (Herbicidal rate of 5% or less (almost no effect))
herbicidal effect rating, L: windgrass (windgrass [8]): 0 (Herbicidal rate of 5% or less (almost no effect))
herbicidal effect rating, M: velvetleaf (velvetleaf [9]): 0 (Herbicidal rate of 5% or less (almost no effect))
herbicidal effect rating, N: redroot pigweed (redroot pigweed [10]): 0 (Herbicidal rate of 5% or less (almost no effect))
herbicidal effect rating, O: lambsquarters (lambsquarters [11]): 0 (Herbicidal rate of 5% or less (almost no effect))
herbicidal effect rating, P: chickweed (chickweed [12]): 0 (Herbicidal rate of 5% or less (almost no effect))
herbicidal effect rating, Q: false cleavers (false cleavers [13]): 0 (Herbicidal rate of 5% or less (almost no effect))
herbicidal effect rating, R: persian speedwell (persian speedwell [14]): 3 (Herbicidal rate of 40% or more and less than 70%)
herbicidal effect grade, F: southern crabgrass (southern crabgrass [15]): 0 (Herbicidal rate of 5% or less (almost no effect))
herbicidal effect grade, G: green foxtail (green foxtail [16]): 0 (Herbicidal rate of 5% or less (almost no effect))
herbicidal effect grade, H: barnyard grass (barnyard grass [17]): 0 (Herbicidal rate of 5% or less (almost no effect))
herbicidal effect grade, I: wild oat (wild oat [18]): 0 (Herbicidal rate of 5% or less (almost no effect))
herbicidal effect grade, J: blackgrass (blackgrass [19]): 0 (Herbicidal rate of 5% or less (almost no effect))
herbicidal effect grade, K: Italian ryegrass (Italian ryegrass [20]): 4 (Herbicidal rate of 70% or more and less than 90%)
herbicidal effect grade, L: windgrass (windgrass [21]): 0 (Herbicidal rate of 5% or less (almost no effect))
herbicidal effect grade, M: velvetleaf (velvetleaf [22]): 0 (Herbicidal rate of 5% or less (almost no effect))
herbicidal effect grade, N: redroot pigweed (redroot pigweed [23]): 0 (Herbicidal rate of 5% or less (almost no effect))
herbicidal effect grade, O: lambsquarters (lambsquarters [24]): 0 (Herbicidal rate of 5% or less (almost no effect))
herbicidal effect grade, P: chickweed (chickweed [25]): 5 (Herbicidal rate of 90% or more (almost completely withered))
herbicidal effect grade, Q: false cleavers (false cleavers [26]): 0 (Herbicidal rate of 5% or less (almost no effect))
herbicidal effect grade, R: persian speedwell (persian speedwell [27]): 5 (Herbicidal rate of 90% or more (almost completely withered))
